Measurements taken from the supplement of paper PMC8882468.

The compounds below were run on HCI-025 (organoid from a breast cancer xenograft) (assay: CTG-3D luminescence at 96 h relative to day-0 seeding control (ratio to day 0); higher = more growth / less cytotoxicity; PDxO 3D drug screen, 96 h, CTG-3D normalised to day-0 seeding control.). Details: 1 µM; days in culture: 172.

| Structure (SMILES) | CTG-3D luminescence at 96 h |
| --- | --- |
| C[C@H](NC(=O)CCC(F)(F)F)C(=O)N[C@@H]1C(=O)N(CCO)c2ncccc2-c2ccccc21 [crenigacestat] | 3.2 |
| COc1cccc2c1C(=O)c1c(O)c3c(c(O)c1C2=O)C[C@@](O)(C(=O)CO)C[C@@H]3O[C@H]1C[C@H](N)[C@H](O)[C@H](C)O1 [doxorubicin] | 0.663 |
| C[C@]12CC[C@@H]3c4ccc(O)cc4C[C@@H](CCCCCCCCC[S+]([O-])CCCC(F)(F)C(F)(F)F)[C@H]3[C@@H]1CC[C@@H]2O (stereo partly specified) [fulvestrant] | 1.97 |
| Nc1ccn([C@@H]2O[C@H](CO)[C@@H](O)C2(F)F)c(=O)n1 [gemcitabine] | 0.742 |
| C=CC(=O)N1CCC[C@@H](n2nc(-c3ccc(Oc4ccccc4)cc3)c3c(N)ncnc32)C1 [ibrutinib] | 1.8 |
| CN(Cc1cnc2nc(N)nc(N)c2n1)c1ccc(C(=O)N[C@@H](CCC(=O)O)C(=O)O)cc1 [methotrexate] | 1.98 |
| CC1(C)CCC(c2ccc(Cl)cc2)=C(CN2CCN(c3ccc(C(=O)NS(=O)(=O)c4ccc(N[C@H](CCN5CCOCC5)CSc5ccccc5)c(S(=O)(=O)C(F)(F)F)c4)cc3)CC2)C1 [navitoclax] | 0.555 |
| NC(=O)c1cccc2cn(-c3ccc([C@@H]4CCCNC4)cc3)nc12 [niraparib] | 2.08 |

Same assay, conditions: 1 µM; days in culture: 209

| Structure (SMILES) | CTG-3D luminescence at 96 h |
| --- | --- |
| C[C@H](NC(=O)CCC(F)(F)F)C(=O)N[C@@H]1C(=O)N(CCO)c2ncccc2-c2ccccc21 [crenigacestat] | 1.76 |
| COc1cccc2c1C(=O)c1c(O)c3c(c(O)c1C2=O)C[C@@](O)(C(=O)CO)C[C@@H]3O[C@H]1C[C@H](N)[C@H](O)[C@H](C)O1 [doxorubicin] | 0.406 |
| C[C@]12CC[C@@H]3c4ccc(O)cc4C[C@@H](CCCCCCCCC[S+]([O-])CCCC(F)(F)C(F)(F)F)[C@H]3[C@@H]1CC[C@@H]2O (stereo partly specified) [fulvestrant] | 1.8 |
| Nc1ccn([C@@H]2O[C@H](CO)[C@@H](O)C2(F)F)c(=O)n1 [gemcitabine] | 0.873 |
| C=CC(=O)N1CCC[C@@H](n2nc(-c3ccc(Oc4ccccc4)cc3)c3c(N)ncnc32)C1 [ibrutinib] | 1.86 |
| CN(Cc1cnc2nc(N)nc(N)c2n1)c1ccc(C(=O)N[C@@H](CCC(=O)O)C(=O)O)cc1 [methotrexate] | 1.3 |
| CC1(C)CCC(c2ccc(Cl)cc2)=C(CN2CCN(c3ccc(C(=O)NS(=O)(=O)c4ccc(N[C@H](CCN5CCOCC5)CSc5ccccc5)c(S(=O)(=O)C(F)(F)F)c4)cc3)CC2)C1 [navitoclax] | 1.81 |
| NC(=O)c1cccc2cn(-c3ccc([C@@H]4CCCNC4)cc3)nc12 [niraparib] | 1.9 |

Same assay, conditions: 1 µM; days in culture: 218

| Structure (SMILES) | CTG-3D luminescence at 96 h |
| --- | --- |
| C[C@H](NC(=O)CCC(F)(F)F)C(=O)N[C@@H]1C(=O)N(CCO)c2ncccc2-c2ccccc21 [crenigacestat] | 1.75 |
| COc1cccc2c1C(=O)c1c(O)c3c(c(O)c1C2=O)C[C@@](O)(C(=O)CO)C[C@@H]3O[C@H]1C[C@H](N)[C@H](O)[C@H](C)O1 [doxorubicin] | 0.23 |
| C[C@]12CC[C@@H]3c4ccc(O)cc4C[C@@H](CCCCCCCCC[S+]([O-])CCCC(F)(F)C(F)(F)F)[C@H]3[C@@H]1CC[C@@H]2O (stereo partly specified) [fulvestrant] | 1.5 |
| Nc1ccn([C@@H]2O[C@H](CO)[C@@H](O)C2(F)F)c(=O)n1 [gemcitabine] | 0.362 |
| C=CC(=O)N1CCC[C@@H](n2nc(-c3ccc(Oc4ccccc4)cc3)c3c(N)ncnc32)C1 [ibrutinib] | 1.57 |
| CN(Cc1cnc2nc(N)nc(N)c2n1)c1ccc(C(=O)N[C@@H](CCC(=O)O)C(=O)O)cc1 [methotrexate] | 0.978 |
| CC1(C)CCC(c2ccc(Cl)cc2)=C(CN2CCN(c3ccc(C(=O)NS(=O)(=O)c4ccc(N[C@H](CCN5CCOCC5)CSc5ccccc5)c(S(=O)(=O)C(F)(F)F)c4)cc3)CC2)C1 [navitoclax] | 0.81 |
| NC(=O)c1cccc2cn(-c3ccc([C@@H]4CCCNC4)cc3)nc12 [niraparib] | 1.03 |

Same assay, conditions: 10 µM; days in culture: 172

| Structure (SMILES) | CTG-3D luminescence at 96 h |
| --- | --- |
| C[C@H](NC(=O)CCC(F)(F)F)C(=O)N[C@@H]1C(=O)N(CCO)c2ncccc2-c2ccccc21 [crenigacestat] | 1.64 |
| COc1cccc2c1C(=O)c1c(O)c3c(c(O)c1C2=O)C[C@@](O)(C(=O)CO)C[C@@H]3O[C@H]1C[C@H](N)[C@H](O)[C@H](C)O1 [doxorubicin] | -0.00377 |
| C[C@]12CC[C@@H]3c4ccc(O)cc4C[C@@H](CCCCCCCCC[S+]([O-])CCCC(F)(F)C(F)(F)F)[C@H]3[C@@H]1CC[C@@H]2O (stereo partly specified) [fulvestrant] | 1.21 |
| Nc1ccn([C@@H]2O[C@H](CO)[C@@H](O)C2(F)F)c(=O)n1 [gemcitabine] | 0.364 |
| C=CC(=O)N1CCC[C@@H](n2nc(-c3ccc(Oc4ccccc4)cc3)c3c(N)ncnc32)C1 [ibrutinib] | 0.991 |
| CN(Cc1cnc2nc(N)nc(N)c2n1)c1ccc(C(=O)N[C@@H](CCC(=O)O)C(=O)O)cc1 [methotrexate] | 1.22 |
| CC1(C)CCC(c2ccc(Cl)cc2)=C(CN2CCN(c3ccc(C(=O)NS(=O)(=O)c4ccc(N[C@H](CCN5CCOCC5)CSc5ccccc5)c(S(=O)(=O)C(F)(F)F)c4)cc3)CC2)C1 [navitoclax] | -0.249 |
| NC(=O)c1cccc2cn(-c3ccc([C@@H]4CCCNC4)cc3)nc12 [niraparib] | 0.426 |

Same assay, conditions: 10 µM; days in culture: 209

| Structure (SMILES) | CTG-3D luminescence at 96 h |
| --- | --- |
| C[C@H](NC(=O)CCC(F)(F)F)C(=O)N[C@@H]1C(=O)N(CCO)c2ncccc2-c2ccccc21 [crenigacestat] | 1.57 |
| COc1cccc2c1C(=O)c1c(O)c3c(c(O)c1C2=O)C[C@@](O)(C(=O)CO)C[C@@H]3O[C@H]1C[C@H](N)[C@H](O)[C@H](C)O1 [doxorubicin] | 0.0188 |
| C[C@]12CC[C@@H]3c4ccc(O)cc4C[C@@H](CCCCCCCCC[S+]([O-])CCCC(F)(F)C(F)(F)F)[C@H]3[C@@H]1CC[C@@H]2O (stereo partly specified) [fulvestrant] | 1.4 |
| Nc1ccn([C@@H]2O[C@H](CO)[C@@H](O)C2(F)F)c(=O)n1 [gemcitabine] | 0.449 |
| C=CC(=O)N1CCC[C@@H](n2nc(-c3ccc(Oc4ccccc4)cc3)c3c(N)ncnc32)C1 [ibrutinib] | 1.41 |
| CN(Cc1cnc2nc(N)nc(N)c2n1)c1ccc(C(=O)N[C@@H](CCC(=O)O)C(=O)O)cc1 [methotrexate] | 0.947 |
| CC1(C)CCC(c2ccc(Cl)cc2)=C(CN2CCN(c3ccc(C(=O)NS(=O)(=O)c4ccc(N[C@H](CCN5CCOCC5)CSc5ccccc5)c(S(=O)(=O)C(F)(F)F)c4)cc3)CC2)C1 [navitoclax] | 0.666 |
| NC(=O)c1cccc2cn(-c3ccc([C@@H]4CCCNC4)cc3)nc12 [niraparib] | 0.545 |

Same assay, conditions: 10 µM; days in culture: 218

| Structure (SMILES) | CTG-3D luminescence at 96 h |
| --- | --- |
| C[C@H](NC(=O)CCC(F)(F)F)C(=O)N[C@@H]1C(=O)N(CCO)c2ncccc2-c2ccccc21 [crenigacestat] | 2.32 |
| COc1cccc2c1C(=O)c1c(O)c3c(c(O)c1C2=O)C[C@@](O)(C(=O)CO)C[C@@H]3O[C@H]1C[C@H](N)[C@H](O)[C@H](C)O1 [doxorubicin] | 0.0154 |
| C[C@]12CC[C@@H]3c4ccc(O)cc4C[C@@H](CCCCCCCCC[S+]([O-])CCCC(F)(F)C(F)(F)F)[C@H]3[C@@H]1CC[C@@H]2O (stereo partly specified) [fulvestrant] | 1.93 |
| Nc1ccn([C@@H]2O[C@H](CO)[C@@H](O)C2(F)F)c(=O)n1 [gemcitabine] | 0.365 |
| C=CC(=O)N1CCC[C@@H](n2nc(-c3ccc(Oc4ccccc4)cc3)c3c(N)ncnc32)C1 [ibrutinib] | 1.75 |
| CN(Cc1cnc2nc(N)nc(N)c2n1)c1ccc(C(=O)N[C@@H](CCC(=O)O)C(=O)O)cc1 [methotrexate] | 1.26 |
| CC1(C)CCC(c2ccc(Cl)cc2)=C(CN2CCN(c3ccc(C(=O)NS(=O)(=O)c4ccc(N[C@H](CCN5CCOCC5)CSc5ccccc5)c(S(=O)(=O)C(F)(F)F)c4)cc3)CC2)C1 [navitoclax] | 0.293 |
| NC(=O)c1cccc2cn(-c3ccc([C@@H]4CCCNC4)cc3)nc12 [niraparib] | 0.271 |

Same assay, conditions: 100 µM; days in culture: 172

| Structure (SMILES) | CTG-3D luminescence at 96 h |
| --- | --- |
| C[C@H](NC(=O)CCC(F)(F)F)C(=O)N[C@@H]1C(=O)N(CCO)c2ncccc2-c2ccccc21 [crenigacestat] | 1.98 |
| COc1cccc2c1C(=O)c1c(O)c3c(c(O)c1C2=O)C[C@@](O)(C(=O)CO)C[C@@H]3O[C@H]1C[C@H](N)[C@H](O)[C@H](C)O1 [doxorubicin] | -0.0121 |
| C[C@]12CC[C@@H]3c4ccc(O)cc4C[C@@H](CCCCCCCCC[S+]([O-])CCCC(F)(F)C(F)(F)F)[C@H]3[C@@H]1CC[C@@H]2O (stereo partly specified) [fulvestrant] | 2.24 |
| Nc1ccn([C@@H]2O[C@H](CO)[C@@H](O)C2(F)F)c(=O)n1 [gemcitabine] | 0.195 |
| C=CC(=O)N1CCC[C@@H](n2nc(-c3ccc(Oc4ccccc4)cc3)c3c(N)ncnc32)C1 [ibrutinib] | -0.0111 |
| CN(Cc1cnc2nc(N)nc(N)c2n1)c1ccc(C(=O)N[C@@H](CCC(=O)O)C(=O)O)cc1 [methotrexate] | 1.02 |
| CC1(C)CCC(c2ccc(Cl)cc2)=C(CN2CCN(c3ccc(C(=O)NS(=O)(=O)c4ccc(N[C@H](CCN5CCOCC5)CSc5ccccc5)c(S(=O)(=O)C(F)(F)F)c4)cc3)CC2)C1 [navitoclax] | -0.109 |
| NC(=O)c1cccc2cn(-c3ccc([C@@H]4CCCNC4)cc3)nc12 [niraparib] | -0.311 |
